Patent publication US10960078B2 (priority 2013, dated 2021)

Key:
[1] = tested on: MCF-7 cells; assay type: cell-based, human; conditions: 30 μM, 24 h
Procedure: The untreated cells were used as control.
MCF-7 cells were seeded in 6-well plates at 5.0×10^5 cells per well in 2 mL of complete DMEM and cultured for 24 h. […] MCF-7 cells without the treatment were used as a control. […] For cell cycle determination, treated cells were collected, washed for twice with ice-cold PBS, fixed with 70% ethanol at 4° C. overnight and treated with Rnase A for 45 min at 37° C., followed by PI staining for 30 min in the dark.

[2] = tested on: caspase-3; test: Western blot analysis of caspase-3 expression; assay type: cell-based, human; conditions: MCF-7 cells, 30 μM, 24 h
Procedure: The untreated MCF-7 cells were used as a negative control.
MCF-7 cells were seeded in 6-well plates at a density of 5.0×10^5 cells per well in 2 mL of complete DMEM and allowed to attach for 24 h. […] MCF-7 cells untreated were used as a negative control. After treatment for 24 h, the MCF-7 cells were harvested. The cellular proteins were extracted in Laemmli buffer and the protein content in the extracts was quantified using a bicinchoninic acid (BCA) protein assay kit (Pierce, USA). Equal amounts of proteins (30 μg lane^−1) were separated on sodium dodecyl sulfate-polyacrylamide gels (SDS-PAGE) and electrotransferred to 0.22 μm polyvinylidene fluoride (PVDF) membranes. The membranes were then blocked with 5% non-fat dry milk in TBST (Tris buffered saline supplemented with 0.05% Tween-20) and probed with antibodies against β-actin (1:1,000 dilution), caspase-3 (1:1,000 dilution) followed by HRP-conjugated (HRP: horseradish peroxidase) anti-rabbit immunoglobulin-G (IgG, 1:5,000 dilution). β-Actin was used as the loading control. Protein bands were detected using Chemiluminescent HRP Substrate (Themo Scientific, USA) according to the manufacture's protocol and analyzed using the ChemiDoc™ MP Imaging System (Bio-Rad, USA).

[3] = In vivo biodistribution in MCF-7 tumor-bearing mice; design: species or system Balb/c female nude mice; conditions: MCF-7 tumor-bearing nude mice, i.v.; Cb 3.5, Ir 6.7, Ir-Cb nanoparticles 10 mg kg^−1
Procedure: Furthermore, to examine the amount of Ir-Cb ADDC in the tumors and other organs, the MCF-7 tumor-bearing mice were sacrificed after intravenous injection with different time intervals. The tumor-bearing mice treated with free Cb and Ir were used as controls. […] After injection for 6 h, the content of Ir-Cb ADDC obviously decreases in kidney, spleen and lung, whereas the downward trend in tumor and liver is slower (FIG. 13b). […] After 6 h, the Ir concentration in spleen and lung decreases quickly.
The biodistribution of Cb, Ir and Ir-Cb nanoparticles was analyzed in Balb/c female nude mice bearing MCF-7 tumors. The MCF-7 tumor-bearing mice were intravenously injected via tail vein with Cb, Ir and Ir-Cb nanoparticles at a dose of Cb (3.5 mg kg^−1), Ir (6.7 mg kg^−1) and Ir-Cb nanoparticles (10 mg kg^−1). Mice were sacrificed by cervical vertebra dislocation at 30 min, 1 h and 6 h after drug administration (n=3 at each time point), and the heart, liver, spleen, lung, kidney and tumor were collected. Tissue samples were rinsed in saline, blotted using paper towel, weighed and stored at −80° C. before being homogenized. Cb, Ir and Ir-Cb were extracted from the homogenate using 2 mL of dichloromethane and methanol (4:1, v/v). The organic phases were collected and dried, and the samples were dissolved in acetonitrile for analysis.

[4] = tested on: MCF-7 tumor; assay type: in vivo, Balb/c female nude mice; conditions: for tumor inhibitory rate (TIR): from tumor weight versus PBS group, 24 days
Procedure: Tumor volume and body weight of tumor-bearing mice were monitored every 3 days within 24 days. […] The tumor inhibitory rate (TIR) was calculated from tumor weight.
Study protocols involving animals were approved by the Animal Ethics Committee of Shanghai Jiao Tong University School of Medicine. SD rats (˜200 g) and 72 Balb/c female nude mice (4 weeks of age) were supplied by Chinese Academy of Sciences (Shanghai). The female nude mice were injected subcutaneously in the right flank region with 200 μL of cell suspension containing 4×10^6 MCF-7 cells. The tumors were allowed to grow to ˜200 mm^3 before experimentation.
Each mouse of different group was earmarked and followed individually throughout the whole experiments. The length and width of the tumor and the body weight of mice were measured before every injection by the end of experiment. Tumor volume (V) was calculated using the formula: V (mm^3)=½×length (mm)×width (mm)^2. After 24 days postinjection, mice were sacrificed, and tumors were separated, weighted and photographed. In addition, the tumors were cut into small pieces, fixed in 10% formalin and embedded in paraffin. Then the tissues embedded in paraffin were sectioned for histopathological analysis with H&E staining.

[5] = Pharmacokinetic study (blood retention) after i.v. injection; conditions: rats, 8 mg kg^−1, 12 h
Procedure: The blood samples (0.5 mL) were taken from the eye socket at the 5 min, 15 min, 30 min, 1 h, 2 h, 4 h, 6 h, 8 h, and 12 h time points after injection. The plasma was obtained by centrifugation at 3,000 rpm for 10 min and stored at −20° C. A 200 μL of plasma was treated two times with 250 μL of acetonitrile and methanol mixture (1:1 v/v). The solvent solutions separated by centrifugation were pooled.

[6] = tested on: MCF-7 cells; test: In vitro cytotoxicity by MTT assay, MCF-7 cells
Procedure: The cells without any treatment were used as the control.
The cells were seeded into 96-well plates at 1×10^4 cells per well in 200 μL of culture medium. […] The cells without the treatment were used as control. The cells were grown for another 72 h. Then, 20 μL of 5 mg mL^−1 MTT assay stock solution in PBS was added to each well. After the cells were incubated for 4 h, the medium containing unreacted MTT was carefully removed. Then, the obtained blue formazan crystals were dissolved in 200 μL well^−1 DMSO, and the absorbance was measured in a BioTek Synergy H4 hybrid reader at a wavelength of 490 nm. The blank was subtracted to the measured optical density (OD) values, and the cell viability was expressed as % of the values obtained for the untreated control cells.

[7] = tested on: MCF-7 cells; test: Cell cycle assay (PI staining, flow cytometry); assay type: cell-based, human; conditions: 30 μM, 24 h
Procedure: MCF-7 cells were seeded in 6-well plates at 5.0×10^5 cells per well in 2 mL of complete DMEM and cultured for 24 h. […] MCF-7 cells without the treatment were used as a control. For quantitative measurement of apoptosis, treated cells were harvested and washed twice with ice-cold PBS, stained with Alexa Fluor® 488 annexin V and PI according to the manufacturer's instructions. For cell cycle determination, treated cells were collected, washed for twice with ice-cold PBS, fixed with 70% ethanol at 4° C. overnight and treated with Rnase A for 45 min at 37° C., followed by PI staining for 30 min in the dark. Both cell apoptosis and cycle were analyzed by flow cytometry (BD FACSCalibur, USA), and […] per sample were counted.

[8] = Self-assembly of Ir-Cb ADDC in water: size and morphology by DLS and TEM; assay type: physicochemical
Procedure: The inherent amphiphilicity of the Ir-Cb ADDC provides an opportunity for itself to self-assemble into nanoparticles in water. To determine the size and morphology of the self-assembled nanoparticles, a dimethylsulfoxide (DMSO) solution of the Ir-Cb ADDC was added dropwise into water, followed by dialysis against water to remove DMSO. A stable and bluish solution with the final Ir-Cb conjugate concentration of 0.5 mg mL^−1 was obtained. FIG. 7a gives the dynamic light scattering (DLS) curve of Ir-Cb ADDC aqueous solution with a concentration of 0.5 mg mL^−1, indicating the formation of aggregates with a narrow unimodal distribution and an average hydrodynamic diameter of approximate 88.3 nm. The morphology of the aggregates was observed by transmission electron microscopy (TEM). […] This size is slightly smaller than that measured by DLS due to the shrinkage of nanoparticles in a drying state during TEM sample preparation. […]
^1H and ^13C nuclear magnetic resonance (^1H NMR and ^13C NMR) spectra were recorded using a Varian Mercury Plus 400 MHz spectrometer. Fourier transform infrared (FTIR) spectra were recorded on a Paragon 1,000 instrument by KBr sample holder method. […] All samples were measured at a scattering angle of 90°. […] Ultraviolet-visible (UV-Vis) absorption of the sample solutions was measured at room temperature by using a Thermo Electron-EV300 UV-Vis spectrophotometer. […]

[9] = Critical aggregation concentration (CAC) measurement with pyrene fluorescent probe; assay type: physicochemical; conditions: in water, pyrene I3/I1
Procedure: To investigate the self-assembly behavior of Ir-Cb ADDC in water, the critical aggregation concentration (CAC) was measured by using pyrene as a fluorescent probe. I1 and I3 are the emission intensities of the first and third bands in the fluorescence spectrum of pyrene respectively, which are labeled as 1 and 3 in the inset of FIG. 7c. The emission intensity ratio of I3/I1 is very sensitive to the polarity of the medium surrounding pyrene molecules. (Kwon, et al. 1993 Langmuir 9, 945-949.) The higher polarity of the medium, the lower the intensity ratio is. The relationship of the I3/I1 ratio with the Ir-Cb ADDC concentration is present in FIG. 7c. At low Ir-Cb ADDC concentration, the I3/I1 value remains nearly unchanged, indicating the characteristics of pyrene in water environment. With increasing Ir-Cb ADDC concentration, the ratio of I3/I1 starts to increase dramatically and reaches the characteristic level of pyrene in hydrophobic environment at a certain Ir-Cb ADDC concentration. According to the inflexion of the curve, the CAC value of the Ir-Cb ADDC is about 7 μg mL^−1.
To determine the CAC value of the Ir-Cb ADDC, pyrene was used as the fluorescence probe. […] The fluorescence emission spectra of all samples were recorded on a LS-50B luminescence spectrometer (Perkin Elmer Co.) at 335 nm excitation wavelength and 8 nm slit width. The I3/I1 values of all solution were recorded.

[10] = tested on: MCF-7/ADR cells; test: Accumulation and efflux assay in MCF-7 and MCF-7/ADR cells (flow cytometry); assay type: cell-based, human; conditions: 30 μM, 1-4 h incubation
Procedure: The fluorescent intensity was calculated by CellQuest software, and blanked by untreated cells.

[11] = tested on: MCF-7 tumor; test: Immunohistochemical analysis of tumor tissues (H&E, PCNA); assay type: in vivo, Balb/c female nude mice; conditions: MCF-7 tumors after treatment
Procedure: 3 days after the last injection, mice were sacrificed and tumor tissues were excised. The tissues were fixed in 10% formalin and embedded in paraffin. The paraffin-embedded 5 μm tumor sections were analyzed by immunohistochemical analysis for PCNA expression. To analyze the PCNA, endogenous peroxidase activity was inhibited by 3% hydrogen peroxide aqueous solution for 10 min, and the sections were heated to boiling in 0.01 M sodium citrate buffer (pH 6.0) for 10 min in the microwave oven for antigen retrieval and repeated boiling process for once. Subsequently, the sections were allowed to cool in the same buffer, rinsed twice with PBS for 5 min and then incubated with PCNA antibody (Boster, China, 1:200) for 30 min at room temperature and then at 4° C. overnight. After washing, sections were incubated with biotinylated secondary antibodies for 20 min at 37° C. Finally, a streptavidin-biotin complex was applied and the immunoreactivity was visualized with diaminobenzidine as a chromogen. The sections were imaged by using Olympus Fluorescence Microscope (Olympus BX61). […]
Each mouse of different group was earmarked and followed individually throughout the whole experiments. The length and width of the tumor and the body weight of mice were measured before every injection by the end of experiment. Tumor volume (V) was calculated using the formula: V (mm^3)=½×length (mm)×width (mm)^2. […]

[12] = In vitro drug release by dialysis in buffered solutions; conditions: pH 5.0, 37° C.

SMILES | ratio of apoptosis cells [1] [%] | caspase-3 protein expression versus untreated control [2] | tissue distribution [3] | tumor volume compared with the PBS group ([4]; after 24 days treatment, i.v. once every 3 days) [%] | tumor inhibitory rate (TIR) [4] [%] | plasma concentration after 12 h relative to Ir-Cb ADDC [5] | IC50 ([6]; Homo sapiens, MCF7, 72 h) [µM] | cytotoxicity compared with free Cb ([6]; MCF-7 cells) | percentage of G0/G1 phase [7] [%] | percentage of G2/M [7] [%] | percentage of S [7] [%] | average hydrodynamic diameter (Dh) by DLS ([8]; aqueous solution 0.5 mg mL^−1) [nm] | average size of spherical nanoparticles by TEM ([8]; dried state) [nm] | critical aggregation concentration (CAC) [9] | anticancer efficiency compared with free Ir and Ir/Cb mixture ([6]; MCF-7 cells, concentration higher than the CAC value) | antitumor activity compared with free Ir and Ir/Cb mixture ([6]; MCF-7 cells, drug concentration lower than the CAC value) | accumulation in MCF-7/ADR cells compared with that in MCF-7 cells [10] | H&E histology of tumor tissue [11] | Ir release / hydrolysis at pH 5.0 [12]
O=C(O)CCCc1ccc(N(CCCl)CCCl)cc1 [Cb, chlorambucil] | 18.02 | up-regulated slightly | largely accumulates in liver, followed by spleen, lung, heart and kidney | 91.60±2.09 | 9.3±2.10 | one twenty-fifth | – | – | – | – | – | – | – | – | – | – | – | – | –
CCc1c2c(nc3ccc(OC(=O)N4CCC(N5CCCCC5)CC4)cc13)-c1cc3c(c(=O)n1C2)COC(=O)[C@]3(O)CC [Ir, irinotecan] | – | up-regulated slightly | mainly accumulates in liver, followed by spleen, lung, kidney and heart up to 2 h | – | 42.3±6.63 | – | ~5 | much higher than that of free Cb | 34.25 | 27.81 | 37.93 | – | – | – | – | – | – | – | –
CCc1c2c(nc3ccc(OC(=O)N4CCC(N5CCCCC5)CC4)cc13)-c1cc3c(c(=O)n1C2)COC(=O)[C@@]3(CC)OC(=O)CCCc1ccc(N(CCCl)CCCl)cc1 [Ir-Cb ADDC] | – | – | accumulate in liver, spleen, kidney, lung and tumor at first 2 h | – | – | – | – | – | – | – | – | ~88.3 | ~75.7 | about 7 μg mL^−1 | much better anticancer efficiency than free Ir and Ir/Cb mixture | worse than that of free Ir and Ir/Cb mixture | about ½ | large necrotic area is observed | hydrolysis of Ir-Cb ADDC is accelerated
